From patent publication US5591755A, “Pyridinyl thiadiazolyl compounds for treating glaucoma” (Novo Nordisk A/S, priority 1990, dated 1997)
Structures can show the parent of a compound that is named as a salt. Where two headings read alike, the source gives them in different places.

Tests used:
[1] = target: muscarinic acetylcholine receptors; test: inhibition of specific binding of 3H-Oxotremorine-M (3H-Oxo), in vitro; parameters: species or system rat (cortex from male Wistar rats); conditions: 3H-Oxo binding, rat cortex, 1.0 nM radioligand, 20 mM Hepes pH 7.4, 30 min at 25° C.
From the text: The pharmacological properties of the compounds of the invention can be illustrated by determining their capability to inhibit the specific binding of ^3 H-Oxotremorine-M (^3 H-Oxo). Birdsdall N. J. M., Hulme E. C., and Burgen A. S. V. (1980). "The Character of Muscarinic Receptors in Different Regions of the Rat Brain". Proc. Roy. Soc. London (Series B) 207,1. ^3 H-Oxo labels muscarinic receptor in the CNS (with a preference for agonist domaines of the receptors). Three different sites are labelled by ^3 H-Oxo. […] Using the present experimental conditions only the high and medium affinity sites are determined.
The inhibitory effects of compounds on ^3 H-Oxo binding reflects the affinity for muscarinic acetylcholine receptors.
All preparations are performed at 0°-4° C. unless otherwise indicated. Fresh cortex (0.1-1 g) from male Wistar rats (150-250 g) is homogenized for 5-10 s in 10 ml 20 mM Hepes pH: 7.4, with an Ultra-Turrax homogenizer. The homogenizer is rinsed with 10 ml of buffer and the combined suspension centrifuged for 15 min at 40,000×g. The pellet is washed three times with buffer. In each step the pellet is homogenized as before in 2×10 ml of buffer and centrifuged for 10 min at 40,000×g.
The final pellet is homogenized in 20 mM Hepes pH: 7.4 (100 ml per g of original tissue) and used for binding assay. Aliquots of 0.5 ml is added 25 μl of test solution and 25 μl of 3H-Oxotremorine (1.0 nM, final concentration) mixed and incubated for 30 min at 25° C. Non-specific binding is determined in triplicate using arecoline (1 μg/ml, final concentration) as the test substance. After incubation samples are added 5 ml of ice-cold buffer and poured directly onto Whatman GF/C glass fiber filters under suction and immediately washed 2 times with 5 ml of ice-cold buffer. The amount of radioactivity on the filters are determined by conventional liquid scintillation counting. Specific binding is total binding minus non specific binding.
Test substances are dissolved in 10 ml water (if necessary heated on a steambath for less than 5 minutes) at a concentration of 2.2 mg/ml.
The test value will be given as IC50 (the concentration (ng/ml) of the test substance which inhibits the specific binding of ^3 H-Oxo by 50%). [formula] where Co is specific binding in control assays and Cx is the specific binding in the test assay. (The calculations assume normal mass-action kinetics).

[2] = target: muscarinic receptor in the CNS; conditions: read-out: affinity of sites labelled by 3H-Oxo, cited from earlier work
[3] = test system: central and peripheral muscarinic effects; conditions: cited from earlier work
[4] = in vivo; cited from earlier work

Row | Compound | Inhibition in vitro OXO BINDING (IC50) [1] [ng/mL] | further results
1 | CCCCCSc1nsnc1C1=CCC(C)N(C)C1.O=C(O)C(=O)O (stereo not shown) [Compound 4, 3-(3-Pentylthio-1,2,5-thiadiazol-4-yl)-1,2,5,6-tetrahydro-1,6-dimethylpyridine oxalate] | 2.0 | 
2 | CC1CC=C(c2nsnc2SCc2ccc(C#N)cc2)CN1C.O=C(O)C(=O)O (stereo not shown) [Compound 5, 3-(3-(4-Cyanobenzylthio)-1,2,5-thiadiazol-4-yl)-1,2,5,6-tetrahydro-1,6-dimethylpyridine oxalate] | 1.9 | 
3 | CCCCCCOc1nsnc1C1=C(C)CCN(C)C1 [Compound 2, 3-(4-Hexyloxy-1,2,5-thiadiazol-3-yl)-1,2,5,6-tetrahydrohydro-1,4-dimethylpyridine oxalate] | 18 | 
4 | C[N+](C)(C)CC#CCN1CCCC1=O [Compound 3H-Oxo, ^3 H-Oxotremorine-M] |  | Kd ([2]; first of three sites (high affinity)): 1.8 nM; Kd ([2]; second of three sites (medium affinity)): 20 nM; Kd ([2]; third of three sites (not determined under the present conditions)): 3000 nM
5 | CC1CC=C(c2nsnc2SCCCCC#N)CN1C.O=C(O)C(=O)O (stereo not shown) [Compound 8, 3-(3-(4-Cyanobutylthio)-1,2,5-thiadiazol-4-yl)-1,2,5,6-tetrahydro-1,6-dimethylpyridine oxalate] | 0.69 | 
6 | CCCCCOc1nsnc1C1=CCC(C)N(C)C1.O=C(O)C(=O)O (stereo not shown) [Compound 7, 3-(3-Pentyloxy-1,2,5-thiadiazol-4-yl)-1,2,5,6-tetrahydro-1,6-dimethylpyridine oxalate] | 3.3 | 
7 | COC(=O)C1=CCCN(C)C1 [Arecoline, methyl 1-methyl-1,2,5,6-tetrahydropyridine-3-carboxylate] |  | separation between central and peripheral muscarinic effects [3]: small separation between central and peripheral muscarinic effects; biological half life [4]: very short biological half life
8 | CCCCCCSc1nsnc1C1=CCC(C)N(C)C1.O=C(O)C(=O)O (stereo not shown) [Compound 3, 3-(3-Hexylthio-1,2,5-thiadiazol-4-yl)-1,2,5,6-tetrahydro-1,6-dimethylpyridine oxalate] | 4.5 | 
9 | COc1nsnc1C1=C(C)CCN(C)C1.O=C(O)/C=C/C(=O)O [Compound 1, 1,2,5,6-Tetrahydro-3-(4-methoxy-1,2,5-thiadiazol-3-yl)-1,4-dimethylpyridine fumarate] | 108 | 
10 | CCCCCCOc1nsnc1C1=CCC(C)N(C)C1.O=C(O)C(=O)O (stereo not shown) [Compound 6, 3-(3-Hexyloxy-1,2,5-thiadiazol-4-yl)-1,2,5,6-tetrahydro-1,6-dimethylpyridine oxalate] | 2.4 | 
